Data published in patent publication US9265253B2, “Use of macrocyclic picolinamides as fungicides” (DOW AGROSCIENCES LLC, priority 2013, dated 2016).

Assays:
Assay type in all cases: in vivo
Erysiphe cichoracearum = experiment: Powdery Mildew of Cucumber (ERYSCI) disease control; conditions: Golovinomyces cichoracearum, topical, 24 h, 1 Day Protectant, read-out: Disease Control ERYSCI 1 DP
Procedure: Technical grades of materials were dissolved in acetone, which were then mixed with nine volumes of water containing 110 ppm Triton X-100. The fungicide solutions were applied onto wheat seedlings using an automated booth sprayer to run-off. All sprayed plants were allowed to air dry prior to further handling. All fungicides were evaluated using the aforementioned method for their activity vs. all target diseases. Wheat leaf blotch and brown rust activity were also evaluated using track spray applications, in which case the fungicides were formulated as EC formulations, containing 0.1% Trycol 5941 in the spray solutions. Wheat plants (variety Yuma) were grown from seed in a greenhouse in 50% mineral soil/50% soil-less Metro mix until the first leaf was fully emerged, with 7-10 seedlings per pot. These plants were inoculated with an aqueous spore suspension of Septoria tritici either prior to or after fungicide treatments. After inoculation the plants were kept in 100% relative humidity (one day in a dark dew chamber followed by two to three days in a lighted dew chamber at 20° C.) to permit spores to germinate and infect the leaf. The plants were then transferred to a greenhouse set at 20° C. for disease to develop. When disease symptoms were fully expressed on the 1st leaves of untreated plants, infection levels were assessed on a scale of 0 to 100 percent disease severity. Percent disease control was calculated using the ratio of disease severity on treated plants relative to untreated plants. Cucumber seedlings (variety Bush Pickle) were grown in soil-less Metro mix, with one plant per pot, and used in the test when 12 to 14 days old. Plants were inoculated with a spore suspension 24 hr following fungicide treatments. After inoculation the plants remained in the greenhouse set at 20° C. until disease was fully expressed. Fungicide formulation, application and disease assessment on the sprayed leaves followed the procedures as described in the Example A.

Cercospora beticola = experiment: Leaf Spot of Sugar Beets (CERCBE) disease control; conditions: Cercospora beticola, topical, 24 h, 1 Day Protectant, sugar beet, read-out: Disease Control CERCBE 1 DP
Procedure: Technical grades of materials were dissolved in acetone, which were then mixed with nine volumes of water containing 110 ppm Triton X-100. The fungicide solutions were applied onto wheat seedlings using an automated booth sprayer to run-off. All sprayed plants were allowed to air dry prior to further handling. All fungicides were evaluated using the aforementioned method for their activity vs. all target diseases. Wheat leaf blotch and brown rust activity were also evaluated using track spray applications, in which case the fungicides were formulated as EC formulations, containing 0.1% Trycol 5941 in the spray solutions. Wheat plants (variety Yuma) were grown from seed in a greenhouse in 50% mineral soil/50% soil-less Metro mix until the first leaf was fully emerged, with 7-10 seedlings per pot. These plants were inoculated with an aqueous spore suspension of Septoria tritici either prior to or after fungicide treatments. After inoculation the plants were kept in 100% relative humidity (one day in a dark dew chamber followed by two to three days in a lighted dew chamber at 20° C.) to permit spores to germinate and infect the leaf. The plants were then transferred to a greenhouse set at 20° C. for disease to develop. When disease symptoms were fully expressed on the 1st leaves of untreated plants, infection levels were assessed on a scale of 0 to 100 percent disease severity. Percent disease control was calculated using the ratio of disease severity on treated plants relative to untreated plants. Sugar beet plants (variety HH88) were grown in soil-less Metro mix and trimmed regularly to maintain a uniform plant size prior to test. Plants were inoculated with a spore suspension 24 hr after fungicide treatments. Inoculated plants were kept in a dew chamber at 22° C. for 48 hr then incubated in a greenhouse set at 24° C. under a clear plastic hood with bottom ventilation until disease symptoms were fully expressed. Fungicide formulation, application and disease assessment on the sprayed leaves followed the procedures as described in the Example A.

Leptosphaeria nodorum = experiment: Wheat Glume Blotch (LEPTNO) disease control; conditions: Parastagonospora nodorum, topical, 24 h, 1 Day Protectant, read-out: Disease Control LEPTNO 1 DP
Procedure: Technical grades of materials were dissolved in acetone, which were then mixed with nine volumes of water containing 110 ppm Triton X-100. The fungicide solutions were applied onto wheat seedlings using an automated booth sprayer to run-off. All sprayed plants were allowed to air dry prior to further handling. All fungicides were evaluated using the aforementioned method for their activity vs. all target diseases. Wheat leaf blotch and brown rust activity were also evaluated using track spray applications, in which case the fungicides were formulated as EC formulations, containing 0.1% Trycol 5941 in the spray solutions. Wheat plants (variety Yuma) were grown from seed in a greenhouse in 50% mineral soil/50% soil-less Metro mix until the first leaf was fully emerged, with 7-10 seedlings per pot. These plants were inoculated with an aqueous spore suspension of Septoria tritici either prior to or after fungicide treatments. After inoculation the plants were kept in 100% relative humidity (one day in a dark dew chamber followed by two to three days in a lighted dew chamber at 20° C.) to permit spores to germinate and infect the leaf. The plants were then transferred to a greenhouse set at 20° C. for disease to develop. When disease symptoms were fully expressed on the 1st leaves of untreated plants, infection levels were assessed on a scale of 0 to 100 percent disease severity. Percent disease control was calculated using the ratio of disease severity on treated plants relative to untreated plants. Wheat plants (variety Yuma) were grown from seed in a greenhouse in 50% mineral soil/50% soil-less Metro mix until the first leaf was fully emerged, with 7-10 seedlings per pot. These plants were inoculated with an aqueous spore suspension of Leptosphaeria nodorum 24 hr after fungicide treatments. After inoculation the plants were kept in 100% relative humidity (one day in a dark dew chamber followed by two days in a lighted dew chamber at 20° C.) to permit spores to germinate and infect the leaf. The plants were then transferred to a greenhouse set at 20° C. for disease to develop. Fungicide formulation, application and disease assessment followed the procedures as described in the Example A.

Venturia inaequalis = experiment: Apple Scab (VENTIN) disease control; conditions: Venturia inaequalis, topical, 24 h, 1 Day Protectant, read-out: Disease Control VENTIN 1 DP
Procedure: Technical grades of materials were dissolved in acetone, which were then mixed with nine volumes of water containing 110 ppm Triton X-100. The fungicide solutions were applied onto wheat seedlings using an automated booth sprayer to run-off. All sprayed plants were allowed to air dry prior to further handling. All fungicides were evaluated using the aforementioned method for their activity vs. all target diseases. Wheat leaf blotch and brown rust activity were also evaluated using track spray applications, in which case the fungicides were formulated as EC formulations, containing 0.1% Trycol 5941 in the spray solutions. Wheat plants (variety Yuma) were grown from seed in a greenhouse in 50% mineral soil/50% soil-less Metro mix until the first leaf was fully emerged, with 7-10 seedlings per pot. These plants were inoculated with an aqueous spore suspension of Septoria tritici either prior to or after fungicide treatments. After inoculation the plants were kept in 100% relative humidity (one day in a dark dew chamber followed by two to three days in a lighted dew chamber at 20° C.) to permit spores to germinate and infect the leaf. The plants were then transferred to a greenhouse set at 20° C. for disease to develop. When disease symptoms were fully expressed on the 1st leaves of untreated plants, infection levels were assessed on a scale of 0 to 100 percent disease severity. Percent disease control was calculated using the ratio of disease severity on treated plants relative to untreated plants. Apple seedlings (variety McIntosh) were grown in soil-less Metro mix, with one plant per pot. Seedlings with two expanding young leaves at the top (older leaves at bottom of the plants were trimmed) were used in the test. Plants were inoculated with a spore suspension of Venturia inaequalis 24 hr after fungicide treatment and kept in a 22° C. dew chamber with 100% RH for 48 hr, and then moved to a greenhouse set at 20° C. for disease to develop. Fungicide formulation, application and disease assessment on the sprayed leaves followed the procedures as described in the Example A.

Row | Compound | pest or weed control at 100 ppm (Erysiphe cichoracearum) [%] | pest or weed control at 100 ppm (Cercospora beticola) [%] | pest or weed control at 100 ppm (Leptosphaeria nodorum) [%] | pest or weed control at 100 ppm (Venturia inaequalis) [%]
1 | CCCO[C@@H]1[C@@H](Cc2ccccc2)CCC[C@H](NC(=O)c2nccc(OC)c2OC(C)=O)C(=O)O[C@H]1C [Compound F88] | 80 to 100 | 80 to 100 | 80 to 100 | –
2 | C=C[C@H]1CCC[C@H](NC(=O)c2nccc(OC)c2OC(C)=O)C(=O)O[C@@H](C)[C@@H]1Oc1ccccc1 [Compound F86] | – | 80 to 100 | 80 to 100 | 0 to 80
3 | CCCO[C@@H]1[C@@H](Cc2ccc(OC)cc2)CCC[C@H](NC(=O)c2nccc(OC)c2OCOC(C)=O)C(=O)O[C@H]1C [Compound F119] | 80 to 100 | 80 to 100 | – | –
4 | COc1ccnc(C(=O)N[C@H]2CCC[C@H](Cc3ccccc3)[C@@H](OC3CCCC3)[C@H](C)OC2=O)c1OCOC(C)=O [Compound F110] | – | – | 80 to 100 | 0 to 80
5 | CCOCC(=O)OCOc1c(OC)ccnc1C(=O)N[C@H]1CCC[C@H](CC2CCCCC2)[C@@H](OCC(C)C)[C@H](C)OC1=O [Compound F175] | 0 to 80 | 80 to 100 | – | –
6 | C=C[C@H]1CCC[C@H](NC(=O)c2nccc(OC)c2OCOC(C)=O)C(=O)O[C@@H](C)[C@@H]1Oc1ccccc1 [Compound F146] | – | 80 to 100 | 80 to 100 | 80 to 100
7 | COc1ccc(C[C@H]2CCC[C@H](NC(=O)c3nccc(OC)c3OCOC(C)=O)C(=O)O[C@@H](C)[C@@H]2Oc2ccccc2)cc1 [Compound F114] | – | 80 to 100 | – | –
8 | CCCO[C@@H]1[C@@H](Cc2ccc(F)cc2)CCC[C@H](NC(=O)c2nccc(OC)c2OCOC(C)=O)C(=O)O[C@H]1C [Compound F101] | 80 to 100 | 80 to 100 | – | –
9 | COc1ccc(C[C@H]2CCC[C@H](NC(=O)c3nccc(OC)c3OCOC(C)=O)C(=O)O[C@@H](C)[C@@H]2OCC(C)C)cc1 [Compound F118] | 0 to 80 | 80 to 100 | – | –
10 | COc1ccnc(C(=O)N[C@H]2CCC[C@H](CC3CCCCC3)[C@@H](OCC(C)C)[C@H](C)OC2=O)c1OCOC(C)=O [Compound F113] | 80 to 100 | 80 to 100 | – | –
11 | COc1ccnc(C(=O)N[C@H]2CCC[C@H](Cc3ccc(C)cc3)[C@@H](OCC(C)C)[C@H](C)OC2=O)c1OCOC(C)=O [Compound F126] | 80 to 100 | 80 to 100 | – | –
12 | CCOCC(=O)OCOc1c(OC)ccnc1C(=O)N[C@H]1CCC[C@H](Cc2ccccc2)[C@@H](OCC2CC2)[C@H](C)OC1=O [Compound F173] | 80 to 100 | 80 to 100 | – | –
13 | CCO[C@@H]1[C@@H](Cc2ccccc2)CCC[C@H](NC(=O)c2nccc(OC)c2OC(C)=O)C(=O)O[C@H]1C [Compound F87] | 0 to 80 | 80 to 100 | 80 to 100 | –
14 | CCCO[C@@H]1[C@@H](Cc2ccccc2)CCC[C@H](NC(=O)c2nccc(OC)c2OC(=O)CCOC)C(=O)O[C@H]1C [Compound F198] | 80 to 100 | 80 to 100 | 80 to 100 | –
15 | COc1ccnc(C(=O)N[C@H]2CCC[C@H](Cc3ccccc3)[C@@H](OCC3CC3)[C@H](C)OC2=O)c1OCOC(C)=O [Compound F107] | 80 to 100 | 80 to 100 | – | –
16 | COc1ccnc(C(=O)N[C@H]2CCC[C@H](CCBr)[C@@H](Oc3ccccc3)[C@H](C)OC2=O)c1OC(C)=O [Compound F80] | – | 80 to 100 | – | 0 to 80
17 | COc1ccnc(C(=O)N[C@H]2CCC[C@H](CC(F)F)[C@@H](Oc3ccccc3)[C@H](C)OC2=O)c1OCOC(C)=O [Compound F138] | – | 80 to 100 | – | 0 to 80
18 | COc1ccnc(C(=O)N[C@H]2CCC[C@H](Cc3ccccc3)[C@@H](OCC3CC3)[C@H](C)OC2=O)c1OCOC(=O)C(C)C [Compound F152] | 80 to 100 | 80 to 100 | – | –
19 | CC[C@H]1CCC[C@H](NC(=O)c2nccc(OC)c2OC(C)=O)C(=O)O[C@@H](C)[C@@H]1Oc1ccccc1 [Compound F81] | 0 to 80 | 80 to 100 | – | 0 to 80
20 | COc1ccnc(C(=O)N[C@H]2CCC[C@H](CC(F)F)[C@@H](Oc3ccccc3)[C@H](C)OC2=O)c1OC(C)=O [Compound F82] | – | 80 to 100 | – | 0 to 80
21 | CCCO[C@@H]1[C@@H](Cc2ccc(F)cc2)CCC[C@H](NC(=O)c2nccc(OC)c2OCOC(=O)COCC)C(=O)O[C@H]1C [Compound F167] | 80 to 100 | 80 to 100 | – | 80 to 100
22 | CCOCC(=O)OCOc1c(OC)ccnc1C(=O)N[C@H]1CCC[C@H](CCF)[C@@H](OCC(C)C)[C@H](C)OC1=O [Compound F181] | 0 to 80 | 0 to 80 | 80 to 100 | –
